From US20250186411A1, “Methods of Treating Disorders Associated with Overactivation of IKKB” (The United States Government as represented by the …, priority 2023, published 2025)

How the values were obtained:
[1] = tested on: differentiated human podocytes; assay: RNA sequencing and enrichment analysis of BT503-treated podocytes; format: cell-based; conditions: vs DMSO in the setting of LPS treatment
From the text: RNA sequencing data was processed as previously described (Z. Wang, A. Ma'ayan, (2016) F1000Res 5, 1574). Briefly, sequencing reads were first aligned to the human genome (version hg38) using Spliced Transcripts Alignment to a Reference (STAR 2.4.1c) (A. Dobin et al., (2013) Bioinformatics 29, 15-21). Aligned reads were then quantified to the transcriptome (UCSC hg38 annotation) at the gene level using featureCounts (v1.4.6) (Y. Liao, G. K. Smyth, W. Shi, (2014) Bioinformatics 30, 923-930). Read counts were normalized to count per million (CPM), and differentially expressed genes were identified using BioJupies (A. Lachmann et al., (2018) Nat Commun 9, 1366). Enrichment analyses of the differentially expressed genes were performed with Enrichr (33, 66) with WikiPathways (D. N. Slenter et al., (2018) Nucleic Acids Res 46, D661-d667) and KEGG (M. Kanehisa, S. Goto, (2000) Nucleic Acids Res 28, 27-30) databases. Normalized read counts were used to create matrix visualized heat maps on Morpheus by Broad Institute (https://software.broadinstitute.org/morpheus) with hierarchical clustering, sorted by one minus Pearson's correlation and clustered by rows. […]

[2] = tested on: differentiated human podocytes; assay: Oxygen consumption rate and extracellular acidification rate (Seahorse XFe96); format: cell-based
Description: Subsequently, basal OCR, maximal respiration, ATP-linked respiration, and spare respiratory capacity were determined in the presence of oligomycin, carbonyl cyanide-p-trifluoromethoxyphenylhydrazone (FCCP), and rotenone/antimycin A. All OCR measurements were normalized for the number of cells per well using CyQuant reagent (Life Technologies).

[3] = tested on: human podocytes; assay: Cell viability of podocytes (renilla activity, MTS assay); format: cell-based
Description: Differentiated pEZX-FR03hKLF5p human podocytes were treated with 25 μg/ml lipopolysaccharide (LPS) or vehicle and 1 μM KLF15 agonist or vehicle control for 24 hours. Firefly and renilla luciferase assay were measured initially to determine relative KLF15 reporter activity.
Differentiated pEZX-FR03hKLF5p human podocytes were treated with 0.4 μg/ml adriamycin (ADR) or vehicle and 1 μM KLF15 agonist or vehicle control for 24 hours. Firefly and renilla luciferase assay were measured initially to determine relative KLF15 reporter activity.
To assess cell viability, the CellTiter 96® AQueous One Solution Reagent (Promega) was added to the culture media and plates were incubated for 2 hours at 37° C. with 5% CO2.

[4] = tested on: FVB/n mice; assay: LPS-induced proteinuric murine model; format: in vivo, mouse
Description: In the LPS-induced proteinuric model, all 8-week-old FVB/n mice were initially treated with LPS [intraperitoneal (IP), 10 μg/g, Sigma-Aldrich] or sterile normal saline (IP) at 0- and 24-hour time points as previously described (17). […] Urine was collected and mice were euthanized 48 hours post-LPS treatment.
Urine albumin was quantified by ELISA using a kit from Bethyl Laboratory Inc. Urine creatinine levels were measured in the same samples using the Creatinine Colorimetric Assay Kit (500701; Cayman Chemical) as per manufacturer's protocol.
Briefly, mice were perfused with PBS containing 2.5 mg/ml iron oxide and 1% BSA. At the end of perfusion, kidneys were removed, decapsulated, minced into 1 mm^3 pieces, and digested in PBS containing 1 mg/ml collagenase A. Digested tissue was subsequently passed through a 100 μm cell strainer and collected by centrifugation. The pellet was resuspended in 1 ml PBS and glomeruli were collected using a magnet. The purity of glomeruli was verified under microscopy. Total RNA was isolated from kidney glomeruli of mice using the RNeasy Kit (Qiagen, Germantown, MD).
Total RNA from cells was extracted by using TRIzol (Life Technologies). First-strand cDNA was prepared from total RNA (up to 1.25 μg) using the SuperScript™ IV VILO™ Master Mix (Life Technologies), and cDNA was amplified in triplicate using PowerUp™ SYBR™ Green Master Mix on an ABI QuantStudio3 (Applied Biosystems). Primers for human and mouse genes were designed using NCBI Primer-BLAST and validated for efficiency before application (Table 1). Data were normalized to housekeeping genes (GAPDH or ACTB) and presented as a fold increase compared with RNA isolated from the control group using the ΔΔCT method.
Transmission Electron Microscopy (TEM) was done in the Central Microscopy Imaging Center at Stony Brook Medicine. Briefly, after embedding the kidney tissues in epoxy resin, ultrathin sections were stained with uranyl acetate and lead citrate, then mounted on a copper grid, and photographed under a FEI BioTwin G2 Transmission Electron Microscope with AMT XR-60 CCD digital Camera (FEI).

[5] = biological target: hERG Human Potassium Ion Channel (Homo sapiens, UniProt Q12809); assay: hERG Human Potassium Ion Channel Cell Based QPatch CiPA Assay
Sequence of hERG Human Potassium Ion Channel (Q12809 whole entry): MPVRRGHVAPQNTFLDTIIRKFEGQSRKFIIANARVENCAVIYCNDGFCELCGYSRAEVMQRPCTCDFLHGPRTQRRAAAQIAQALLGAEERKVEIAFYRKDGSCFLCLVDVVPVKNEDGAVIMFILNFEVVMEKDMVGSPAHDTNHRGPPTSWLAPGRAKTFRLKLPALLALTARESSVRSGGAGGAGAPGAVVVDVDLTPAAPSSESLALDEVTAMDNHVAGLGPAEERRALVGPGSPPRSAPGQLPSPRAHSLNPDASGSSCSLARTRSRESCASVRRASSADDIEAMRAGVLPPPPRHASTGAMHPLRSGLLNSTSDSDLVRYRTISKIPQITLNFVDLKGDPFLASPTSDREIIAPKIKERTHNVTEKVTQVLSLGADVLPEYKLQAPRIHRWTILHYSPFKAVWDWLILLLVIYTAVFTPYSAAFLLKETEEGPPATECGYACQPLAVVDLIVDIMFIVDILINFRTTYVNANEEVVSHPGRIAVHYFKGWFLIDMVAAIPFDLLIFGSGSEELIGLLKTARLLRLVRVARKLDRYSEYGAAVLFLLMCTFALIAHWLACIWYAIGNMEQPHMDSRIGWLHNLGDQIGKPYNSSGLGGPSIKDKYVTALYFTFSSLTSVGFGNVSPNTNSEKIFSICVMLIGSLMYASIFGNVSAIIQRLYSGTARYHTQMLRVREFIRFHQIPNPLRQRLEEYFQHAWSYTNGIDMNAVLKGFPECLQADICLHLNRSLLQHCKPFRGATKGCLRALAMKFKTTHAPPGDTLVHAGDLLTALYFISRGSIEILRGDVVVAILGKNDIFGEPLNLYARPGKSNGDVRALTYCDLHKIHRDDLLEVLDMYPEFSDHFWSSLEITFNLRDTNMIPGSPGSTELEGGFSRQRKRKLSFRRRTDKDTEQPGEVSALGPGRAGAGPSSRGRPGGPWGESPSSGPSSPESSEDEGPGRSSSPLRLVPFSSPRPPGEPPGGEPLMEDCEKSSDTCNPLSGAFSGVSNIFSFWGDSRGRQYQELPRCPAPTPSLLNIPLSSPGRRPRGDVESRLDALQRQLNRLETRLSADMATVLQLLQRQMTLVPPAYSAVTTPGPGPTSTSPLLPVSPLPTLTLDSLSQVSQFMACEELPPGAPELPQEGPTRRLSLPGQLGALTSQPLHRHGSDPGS
From the text: A 500 ms pulse to −40 mV is delivered to measure the leaking current, which is subtracted from the tail current on-line. The cell is subsequently depolarized to +40 mV for 500 ms and then to −80 mV over a 100 ms ramp to elicit the hERG tail current. The parameters measured were the maximum tail current evoked on stepping to 40 mV and ramping back to −80 mV from the test pulse. All data were filtered for seal quality, seal drop, and current amplitude.

[6] = biological target: IKBKB^M96V mutant (Homo sapiens, UniProt O14920, M96V)
Sequence of IKBKB^M96V mutant (O14920 whole entry M96V): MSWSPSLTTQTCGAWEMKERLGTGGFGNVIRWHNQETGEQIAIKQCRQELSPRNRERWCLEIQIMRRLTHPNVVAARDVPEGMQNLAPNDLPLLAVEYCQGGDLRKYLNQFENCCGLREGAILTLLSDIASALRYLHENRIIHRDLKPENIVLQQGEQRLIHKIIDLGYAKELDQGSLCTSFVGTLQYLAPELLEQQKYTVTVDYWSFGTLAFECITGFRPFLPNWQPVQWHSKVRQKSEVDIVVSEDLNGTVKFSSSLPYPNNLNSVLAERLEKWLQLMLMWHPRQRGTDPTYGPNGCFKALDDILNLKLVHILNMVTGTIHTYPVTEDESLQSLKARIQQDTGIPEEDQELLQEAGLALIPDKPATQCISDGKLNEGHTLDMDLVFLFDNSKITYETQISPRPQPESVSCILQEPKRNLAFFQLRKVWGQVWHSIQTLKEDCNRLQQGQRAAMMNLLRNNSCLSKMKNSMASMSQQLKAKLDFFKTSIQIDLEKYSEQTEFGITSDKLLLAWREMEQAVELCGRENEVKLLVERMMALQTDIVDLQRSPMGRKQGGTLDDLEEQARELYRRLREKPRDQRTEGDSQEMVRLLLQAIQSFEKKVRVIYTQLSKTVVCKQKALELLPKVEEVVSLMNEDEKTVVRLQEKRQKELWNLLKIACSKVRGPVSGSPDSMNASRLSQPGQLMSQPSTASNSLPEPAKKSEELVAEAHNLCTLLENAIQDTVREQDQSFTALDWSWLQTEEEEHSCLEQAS
Description: After the kinase reaction, an equal volume of ADP-Go™ Reagent is added to both terminate the kinase reaction and deplete the remaining ATP. Subsequently, the Detection Reagent is added to simultaneously convert ADP to ATP and measure the concentrations of newly synthesized ATP using a luciferase/luciferin reaction. The light generated is measured using a 96-well plate reader SpectraMax M3 (Molecular Devices). Luminescence can be correlated to ADP concentrations by using an ATP-to-ADP conversion curve.

CSc1ccc(NC(=O)Nc2ccc(C)nc2)cc1 [BT503]
DEGs involved in NF-κB signaling (GSEA, heatmap) [1]: downregulation
basal respiration, maximal respiration, ATP-linked respiration, and spare respiratory capacity ([2]; 3-10 μM): No significant differences
oxygen consumption rate (OCR) and extracellular acidification rate (ECAR) ([2]; as compared to DMSO or DEX): no significant differences
toxicity to human podocytes ([3]; analogue screen): no observed toxicity
renilla activity (cell viability) in the setting of LPS treatment ([3]; as compared to DMSO-treated podocytes): restored renilla activity
Glomerular Klf15 and Wilms Tumor 1 (Wt1) expression ([4]; LPS conditions, vs DMSO-treated mice): restored
albuminuria ([4]; LPS proteinuric murine model, concurrent treatment, vs DMSO): attenuated albuminuria
foot process effacement (podocyte injury) ([4]; LPS treatment): significantly restored
% inhibition mean ([5]; 3 μM): 1.20%
% inhibition n1 ([5]; 3 μM): −2.01%
% inhibition n2 ([5]; 3 μM): 4.41%
% inhibition mean ([5]; 10 μM): 6.25%
% inhibition n1 ([5]; 10 μM): −0.08%
% inhibition n2 ([5]; 10 μM): 12.57%
hERG inhibition ([5]; 3-10 μM, as compared to positive control): low inhibition
IKKβ kinase inhibition in IKBKB^M96V mutant as compared to IKBKB^WT [6]: resistance to IKKβ kinase inhibition
